Data as given in patent publication US4508719A, “Hydroxyimino and alkoxyimino derivatives of 1,4-dihydropyridine and anti-hypertensive compositions” (Pierrel S.p.A., priority 1982, dated 1985).
Where two headings read alike, the source gives them in different places.

What was measured:
in vivo = conditions: mouse, iv
Procedure: Male CD1 mice from Charles River, weighing 25 g, are used. Compounds are administered intravenously (i.v.), dissolved in dimethylsulfoxide, and the volume of administration is 0.01 ml/10 g of body weight. The lethal dose, LD50 after seven days, is calculated according to the method of Litchfield and Wilcoxon (Exp. Ther. 96, 99 (1949)).

[1] = tested on: taenia coli of guinea pigs, depolarized, stimulated with CaCl2; assay: Antagonistic activity to calcium in the taenia coli of guinea pigs (in vitro); type: cell-based, Hartley albino guinea pigs; conditions: for IC50: Cavia porcellus, read-out: Ca--antagonistic activity in vitro ED50
Procedure: Hartley albino guinea pigs of average weight 450 g are used. […] The compounds are allowed to stand in contact with the preparation for ten minutes. The activities ED50 are calculated from the maximum percentage of inhibition.

[2] = taenia coli, CaCl2 10^-3 M, ten minutes contact, from maximum percentage of inhibition (for 0265B, 0246B, 0247B, 0270B, 0224A independent of time of appearance)

SMILES | LD50 at 168 h (in vivo) [mg/kg] | IC50 [1, 2] [nM] | inhibition of contractions due to CaCl2 after repeated washing of the tissue ([1]; taenia coli) | IC50 [1] [nM]
COC(=O)C1=C(C)NC(C)=C(C(C)=NOC(C)C)C1c1cccc([N+](=O)[O-])c1 (centres unmarked) [0265B] | 27.6 | 4.4 | increases progressively in spite of repeated washing of the tissue | –
COC(=O)C1=C(C)NC(C)=C(C(C)=NOCCN(C)C)C1c1cccc([N+](=O)[O-])c1 (centres unmarked) [0274B] | 38.3 | 510 | – | –
COC(=O)C1=C(C)NC(C)=C(C(C)=NOCc2ccccc2)C1c1cccc([N+](=O)[O-])c1 (centres unmarked) [0247B] | 28.9 | 4.8 | increases progressively in spite of repeated washing of the tissue | –
CCOC(=O)CON=C(C)C1=C(C)NC(C)=C(C(=O)OC)C1c1cccc([N+](=O)[O-])c1 (centres unmarked) [0234A, Methyl 2,6-dimethyl-3-[1-(ethoxycarbonyl)methoxyimino]ethyl-4-(3-nitrophenyl)-1,4-dihydro-pyridin-5-carboxylate] | 17.3 | 29 | – | –
COC(=O)C1=C(C)NC(C)=C(C(=O)OCCN(C)Cc2ccccc2)C1c1cccc([N+](=O)[O-])c1 (centres unmarked) [Nicardipine, reference compound] | 17.4 | 2.3 | – | –
CCOCCON=C(C)C1=C(C)NC(C)=C(C(=O)OC)C1c1cccc([N+](=O)[O-])c1 (centres unmarked) [0254B] | 35 | 5.9 | – | –
COC(=O)C1=C(C)NC(C)=C(C(C)=NO)C1c1cccc([N+](=O)[O-])c1 (centres unmarked) [0227A, Methyl 2,6-dimethyl-3-(1-hydroxyimino)ethyl-4-(3-nitrophenyl)-1,4-dihydropyridine-5-carboxylate] | 15.2 | 270 | – | –
COC(=O)C1=C(C)NC(C)=C(C(C)=NOC2CCCC2)C1c1cccc([N+](=O)[O-])c1 (centres unmarked) [0270B] | 70.3 | 5.6 | increases progressively in spite of repeated washing of the tissue | –
COC(=O)C1=C(C)NC(C)=C(C(C)=NOCCN2CCCCC2)C1c1cccc([N+](=O)[O-])c1 (centres unmarked) [0276B] | 22.7 | 220 | – | –
CCOCCON=C(COC)C1=C(C)NC(C)=C(C(=O)OC)C1c1cccc([N+](=O)[O-])c1 (centres unmarked) [0286C] | > 160 | 370 | – | –
COC(=O)C1=C(C)NC(C)=C(C(=O)OC)C1c1ccccc1[N+](=O)[O-] [Nifedipine, reference compound] | – | – | – | 2.6
C=CCON=C(C)C1=C(C)NC(C)=C(C(=O)OC)C1c1cccc([N+](=O)[O-])c1 (centres unmarked) [0245B] | 35.4 | 4.7 | – | –
CON=C(C)C1=C(C)NC(C)=C(C(=O)OC)C1c1cccc([N+](=O)[O-])c1 (centres unmarked) [0251A, Methyl 2,6-dimethyl-3-(1-methoxyimino)ethyl-4-(3-nitrophenyl)-1,4-dihydropyridin-5-carboxylate] | 27.3 | 26 | – | –
CCON=C(C)C1=C(C)NC(C)=C(C(=O)OC)C1c1cccc([N+](=O)[O-])c1 (centres unmarked) [0235A, Methyl 2,6-dimethyl-3-(1-ethoxyimino)ethyl-4-(3-nitrophenyl)-1,4-dihydropyridin-5-carboxylate] | 30.6 | 7.4 | – | –
CCCCON=C(C)C1=C(C)NC(C)=C(C(=O)OC)C1c1cccc([N+](=O)[O-])c1 (centres unmarked) [0246B] | 37.5 | 7 | increases progressively in spite of repeated washing of the tissue | –
CCOC(=O)C1=C(C)NC(C)=C(C(=O)OC)C1c1cccc([N+](=O)[O-])c1 (centres unmarked) [Nitrendipine, reference compound] | 34.5 | 1.9 | – | –
COC(=O)C1=C(C)NC(C)=C(C(C)=NOCCN(C)Cc2ccccc2)C1c1cccc([N+](=O)[O-])c1 (centres unmarked) [0224A, Methyl 2,6-dimethyl-3-[1-(2-N-benzyl-N-methylamino)ethoxy-imino]ethyl-4-(3-nitrophenyl)-1,4-dihydropyridin-5-carboxylate] | 3.3 | 18 | increases progressively in spite of repeated washing of the tissue | –
